Assay results taken from patent US9474790B2, “Stable, protracted GLP-1/glucagon receptor co-agonists for medical use” (Novo Nordisk A/S, priority 2013, dated 2016).
Numbered stars: 1 amine (or outer) side, 2 acyl side, 3 side chain; on linkers, the order of the positions; unused ones are H or OH. Square brackets hold non-standard residues; d marks the D form. Side chains are listed from the residue outwards. Peptide text beside a SMILES is read from it. * marks the point of attachment. C18 diacid = O=C(O)CCCCCCCCCCCCCCCCC(=O)*; γGlu = O=C(O)[C@H](CCC(=O)[*:2])N[*:1]; AEEA = NCCOCCOCC(=O)O; Aib = CC(C)(N)C(=O)O

Assay: Thioflavin T (ThT) fibrillation assay for physical stability
Assay type: physicochemical
Conditions: 250 μM in 10 mM HEPES buffer, pH 7.5, 37° C., shaking 960 rpm
How it was run: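 Peptide at 250 μM in 10 mM HEPES pH 7.5 with 1 μM ThT, at 37° C with 960 rpm orbital shaking. Fluorescence (ex 444/em 485 nm) read every 20 min after 10 min pre-incubation; sigmoidal fit gives lag time (t0−2τ) and kapp (1/τ). Recovery is RP-HPLC peptide in the centrifuged, 0.22 μm-filtered supernatant as % of initial.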

Structure (SMILES) | THT assay Lag time (Ex. 76)
CC(C)C[C@H](NC(=O)[C@H](CC(=O)O)NC(=O)[C@H](CC(C)C)NC(=O)[C@H](Cc1ccc(O)cc1)NC(=O)[C@H](CCCCN)NC(=O)[C@H](CO)NC(=O)[C@H](CC(C)C)NC(=O)[C@H](CC(=O)O)NC(=O)[C@H](CO)NC(=O)[C@@H](NC(=O)[C@H](Cc1ccccc1)NC(=O)[C@@H](NC(=O)CNC(=O)[C@H](CCC(N)=O)NC(=O)C(C)(C)NC(=O)[C@@H](N)Cc1c[nH]cn1)[C@@H](C)O)[C@@H](C)O)C(=O)N[C@@H](CCCCN)C(=O)N[C@@H](CCCNC(=N)N)C(=O)N[C@@H](C)C(=O)N[C@@H](CCCNC(=N)N)C(=O)N[C@@H](CCC(=O)O)C(=O)N[C@@H](Cc1ccccc1)C(=O)N[C@H](C(=O)N[C@@H](CCC(N)=O)C(=O)N[C@@H](Cc1c[nH]c2ccccc12)C(=O)N[C@@H](CC(C)C)C(=O)N[C@@H](CC(C)C)C(=O)N[C@@H](CCCCNC(=O)CC[C@H](NC(=O)CC[C@H](NC(=O)COCCOCCNC(=O)COCCOCCNC(=O)CC[C@H](NC(=O)CCCCCCCCCCCCCCCCC(=O)O)C(=O)O)C(=O)O)C(=O)O)C(=O)N[C@H](C(N)=O)[C@@H](C)O)C(C)C [Example 26, N^ε28-[(4S)-4-carboxy-4-[[(4S)-4-carboxy-4-[[2-[2-[2-[[2-[2-[2-[[(4S)-4-carboxy-4-(17-carboxyheptadecanoylamino)butanoyl]amino]ethoxy]ethoxy]-acetyl]amino]ethoxy]ethoxy]acetyl]amino]butanoyl]amino]butanoyl]-[Aib2,Leu10,Leu16,Lys17,Arg20,Glu21, Leu27,Lys28]-Glucagon amide] (H-H[Aib]QGTFTSDLSKYLDLKRAREFVQWLLK([γGlu-γGlu-AEEA-AEEA-γGlu-C18 diacid])T-NH2) | 45 h
CC(C)C[C@H](NC(=O)[C@H](Cc1ccc(O)cc1)NC(=O)[C@H](CCCCN)NC(=O)[C@H](CO)NC(=O)[C@H](CC(C)C)NC(=O)[C@H](CC(=O)O)NC(=O)[C@H](CO)NC(=O)[C@@H](NC(=O)[C@H](Cc1ccccc1)NC(=O)[C@@H](NC(=O)CNC(=O)[C@H](Cc1c[nH]cn1)NC(=O)C(C)(C)NC(=O)[C@@H](N)Cc1c[nH]cn1)[C@@H](C)O)[C@@H](C)O)C(=O)N[C@@H](CCC(=O)O)C(=O)N[C@@H](CO)C(=O)N[C@@H](CCCCN)C(=O)N[C@@H](CCCNC(=N)N)C(=O)N[C@@H](C)C(=O)N[C@@H](CCCNC(=N)N)C(=O)N[C@@H](CCC(=O)O)C(=O)N[C@@H](Cc1ccccc1)C(=O)N[C@H](C(=O)N[C@@H](CCC(N)=O)C(=O)N[C@@H](Cc1c[nH]c2ccccc12)C(=O)N[C@@H](CC(C)C)C(=O)N[C@@H](CC(C)C)C(=O)N[C@@H](CCCCNC(=O)CC[C@H](NC(=O)CC[C@H](NC(=O)COCCOCCNC(=O)COCCOCCNC(=O)CC[C@H](NC(=O)CCCCCCCCCCCCCCCCC(=O)O)C(=O)O)C(=O)O)C(=O)O)C(=O)N[C@H](C(N)=O)[C@@H](C)O)C(C)C [Example 27, N^ε28-[(4S)-4-carboxy-4-[[(4S)-4-carboxy-4-[[2-[2-[2-[[2-[2-[2-[[(4S)-4-carboxy-4-(17-carboxyheptadecanoylamino)butanoyl]amino]ethoxy]ethoxy]acetyl]amino]ethoxy]ethoxy]acetyl]amino]butanoyl]amino]butanoyl]-[Aib2,His3,Leu10,Glu15,Lys17,Arg20,Glu21,Leu27, Lys28]-Glucagon amide] (H-H[Aib]HGTFTSDLSKYLESKRAREFVQWLLK([γGlu-γGlu-AEEA-AEEA-γGlu-C18 diacid])T-NH2; N-terminus assumed) | 42 h
CC(C)C[C@H](NC(=O)[C@H](Cc1ccc(O)cc1)NC(=O)[C@H](CCCCN)NC(=O)[C@H](CO)NC(=O)[C@H](CC(C)C)NC(=O)[C@H](CC(=O)O)NC(=O)[C@H](CO)NC(=O)[C@@H](NC(=O)[C@H](Cc1ccccc1)NC(=O)[C@@H](NC(=O)CNC(=O)[C@H](Cc1c[nH]cn1)NC(=O)C(C)(C)NC(=O)[C@@H](N)Cc1c[nH]cn1)[C@@H](C)O)[C@@H](C)O)C(=O)N[C@@H](CCC(=O)O)C(=O)N[C@@H](CO)C(=O)N[C@@H](CCCNC(=N)N)C(=O)N[C@@H](CCCNC(=N)N)C(=O)N[C@@H](C)C(=O)N[C@@H](CCCNC(=N)N)C(=O)N[C@@H](CCC(=O)O)C(=O)N[C@@H](Cc1ccccc1)C(=O)N[C@H](C(=O)N[C@@H](CCC(N)=O)C(=O)N[C@@H](Cc1c[nH]c2ccccc12)C(=O)N[C@@H](CC(C)C)C(=O)N[C@@H](CC(C)C)C(=O)N[C@@H](CCCCNC(=O)CC[C@H](NC(=O)COCCOCCNC(=O)COCCOCCNC(=O)CC[C@H](NC(=O)CC[C@H](NC(=O)CCCCCCCCCCCCCCCCC(=O)O)C(=O)O)C(=O)O)C(=O)O)C(=O)N[C@H](C(N)=O)[C@@H](C)O)C(C)C [Example 30, N^ε28-[(4S)-4-carboxy-4-[[2-[2-[2-[[2-[2-[2-[[(4S)-4-carboxy-4-[[(4S)-4-carboxy-4-(17-carboxyheptadecanoylamino)butanoyl]amino]butanoyl]amino]ethoxy]ethoxy]acetyl]amino]ethoxy]ethoxy]acetyl]amino]butanoyl]-[Aib2,His3,Leu10,Glu15,Arg20,Glu21,Leu27,Lys28]-Glucagon amide] (H-H[Aib]HGTFTSDLSKYLESRRAREFVQWLLK([γGlu-AEEA-AEEA-γGlu-γGlu-C18 diacid])T-NH2; N-terminus assumed) | 45 h
CC(C)C[C@H](NC(=O)[C@H](Cc1c[nH]c2ccccc12)NC(=O)[C@H](C)NC(=O)[C@@H](NC(=O)[C@H](Cc1ccccc1)NC(=O)[C@H](CCC(=O)O)NC(=O)[C@H](CCCNC(=N)N)NC(=O)[C@H](C)NC(=O)[C@H](CCCNC(=N)N)NC(=O)[C@H](CCCNC(=N)N)NC(=O)[C@H](CO)NC(=O)[C@H](CCC(=O)O)NC(=O)[C@H](CC(C)C)NC(=O)[C@H](Cc1ccc(O)cc1)NC(=O)[C@H](CCCCN)NC(=O)[C@H](CO)NC(=O)[C@H](CC(C)C)NC(=O)[C@H](CC(=O)O)NC(=O)[C@H](CO)NC(=O)[C@@H](NC(=O)[C@H](Cc1ccccc1)NC(=O)[C@@H](NC(=O)CNC(=O)[C@H](Cc1c[nH]cn1)NC(=O)C(C)(C)NC(=O)[C@@H](N)Cc1c[nH]cn1)[C@@H](C)O)[C@@H](C)O)C(C)C)C(=O)N[C@@H](CC(C)C)C(=O)N[C@@H](CCCCNC(=O)CC[C@H](NC(=O)COCCOCCNC(=O)COCCOCCNC(=O)CC[C@H](NC(=O)CC[C@H](NC(=O)CCCCCCCCCCCCCCCCC(=O)O)C(=O)O)C(=O)O)C(=O)O)C(=O)N[C@H](C(N)=O)[C@@H](C)O [Example 31, N^ε28-[(4S)-4-carboxy-4-[[2-[2-[2-[[2-[2-[2-[[(4S)-4-carboxy-4-[[(4S)-4-carboxy-4-(17-carboxyheptadecanoylamino)butanoyl]amino]butanoyl]amino]ethoxy]ethoxy]acetyl]amino]ethoxy]ethoxy]acetyl]amino]butanoyl]-[Aib2,His3,Leu10,Glu15,Arg20,Glu21,Ala24,Leu27, Lys28]-Glucagon amide] (H-H[Aib]HGTFTSDLSKYLESRRAREFVAWLLK([γGlu-AEEA-AEEA-γGlu-γGlu-C18 diacid])T-NH2; N-terminus assumed) | 45 h

The remaining lines, values ahead:

THT assay Lag time (Ex. 76) | Structure (SMILES)
45 h | CC(C)C[C@H](NC(=O)[C@H](Cc1ccc(O)cc1)NC(=O)[C@H](CCCCN)NC(=O)[C@H](CO)NC(=O)[C@H](CC(C)C)NC(=O)[C@H](CC(=O)O)NC(=O)[C@H](CO)NC(=O)[C@@H](NC(=O)[C@H](Cc1ccccc1)NC(=O)[C@@H](NC(=O)CNC(=O)[C@H](Cc1c[nH]cn1)NC(=O)C(C)(C)NC(=O)[C@@H](N)Cc1c[nH]cn1)[C@@H](C)O)[C@@H](C)O)C(=O)N[C@@H](CCC(=O)O)C(=O)N[C@@H](CO)C(=O)N[C@@H](CCCNC(=N)N)C(=O)N[C@@H](CCCNC(=N)N)C(=O)N[C@@H](C)C(=O)N[C@@H](CCCNC(=N)N)C(=O)N[C@@H](CCC(=O)O)C(=O)N[C@@H](Cc1ccccc1)C(=O)N[C@H](C(=O)N[C@@H](CCC(N)=O)C(=O)N[C@@H](Cc1c[nH]c2ccccc12)C(=O)N[C@@H](CC(C)C)C(=O)N[C@@H](CC(C)C)C(=O)N[C@@H](CCCCNC(=O)CC[C@H](NC(=O)CC[C@H](NC(=O)COCCOCCNC(=O)COCCOCCNC(=O)CC[C@H](NC(=O)CCCCCCCCCCCCCCCCC(=O)O)C(=O)O)C(=O)O)C(=O)O)C(=O)N[C@H](C(N)=O)[C@@H](C)O)C(C)C [Example 33, N^ε28-[(4S)-4-carboxy-4-[[(4S)-4-carboxy-4-[[2-[2-[2-[[2-[2-[2-[[(4S)-4-carboxy-4-(17-carboxyheptadecanoylamino)butanoyl]amino]ethoxy]ethoxy]acetyl]amino]ethoxy]ethoxy]acetyl]amino]butanoyl]amino]butanoyl]-[Aib2,His3,Leu10,Glu15,Arg20,Glu21,Leu27,Lys28]-Glucagon amide] (H-H[Aib]HGTFTSDLSKYLESRRAREFVQWLLK([γGlu-γGlu-AEEA-AEEA-γGlu-C18 diacid])T-NH2; N-terminus assumed)
45 h | CC(C)C[C@H](NC(=O)[C@H](Cc1ccc(O)cc1)NC(=O)[C@H](CCCCN)NC(=O)[C@H](CO)NC(=O)[C@H](CC(C)C)NC(=O)[C@H](CC(=O)O)NC(=O)[C@H](CO)NC(=O)[C@@H](NC(=O)[C@H](Cc1ccccc1)NC(=O)[C@@H](NC(=O)CNC(=O)[C@H](Cc1c[nH]cn1)NC(=O)C(C)(C)NC(=O)[C@@H](N)Cc1c[nH]cn1)[C@@H](C)O)[C@@H](C)O)C(=O)N[C@@H](CCC(=O)O)C(=O)N[C@@H](CO)C(=O)N[C@@H](CCCCN)C(=O)N[C@@H](CCCNC(=N)N)C(=O)N[C@@H](C)C(=O)N[C@@H](CCCNC(=N)N)C(=O)N[C@@H](CCC(=O)O)C(=O)N[C@@H](Cc1ccccc1)C(=O)N[C@H](C(=O)N[C@@H](CCC(N)=O)C(=O)N[C@@H](Cc1c[nH]c2ccccc12)C(=O)N[C@@H](CC(C)C)C(=O)N[C@@H](CC(C)C)C(=O)N[C@@H](CCCCNC(=O)CC[C@H](NC(=O)CC[C@H](NC(=O)CC[C@H](NC(=O)CCCCCCCCCCCCCCCCC(=O)O)C(=O)O)C(=O)O)C(=O)O)C(=O)N[C@H](C(N)=O)[C@@H](C)O)C(C)C [Example 34, N^ε28-[(4S)-4-carboxy-4-[[(4S)-4-carboxy-4-[[(4S)-4-carboxy-4-(17-carboxyheptadecanoylamino)butanoyl]amino]butanoyl]amino]butanoyl]-[Aib2,His3,Leu10,Glu15,Lys17,Arg20,Glu21,Leu27,Lys28]-Glucagon amide] (H-H[Aib]HGTFTSDLSKYLESKRAREFVQWLLK([γGlu-γGlu-γGlu-C18 diacid])T-NH2; N-terminus assumed)
